The term IC50 denotes the midpoint of a concentration-inhibition curve.

The test can be described thus: Inhibition of NLRP3-dependent pyroptosis in PMA-differentiated human THP-1 cells assessed as inhibition of LPS/ATP-induced cell death pretreated for 4 hrs with LPS followed by incubation with compound for 1 hr and later treated with ATP for 1.5 hrs by LDH assay.

Consider `CCOC(=O)Cn1nc(Cc2ccccc2Cl)oc1=O`, for which the IC50 came out at 1550 nM.

The values above are taken from BindingDB's records for doi:10.1016/j.ejmech.2023.115542 (University of Turin, 2023).
